{"source": "paper PMC6694155", "about": "“PTPσ inhibitors promote hematopoietic stem cell regeneration” (Nature Communications, 2019)", "molecular_target": "T1, Lambda PP (Lambda Protein Phosphatase) (Escherichia phage lambda, UniProt P03772)", "T1 construct": "purchased Eurofins Pharma Discovery Services UK", "T1 sequence (P03772 whole entry)": "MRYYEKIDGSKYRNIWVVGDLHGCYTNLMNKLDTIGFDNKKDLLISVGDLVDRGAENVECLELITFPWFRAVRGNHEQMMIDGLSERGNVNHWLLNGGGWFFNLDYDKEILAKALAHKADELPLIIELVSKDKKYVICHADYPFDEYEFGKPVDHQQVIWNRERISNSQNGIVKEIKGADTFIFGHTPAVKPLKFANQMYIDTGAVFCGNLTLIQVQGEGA", "test": "PhosphataseProfiler screen: Lambda PP", "format": "biochemical", "details": "replicates", "description": "Compound DJ001 was evaluated in a PhosphataseProfiler™ screen at 10 μM and 1 μM (2.7 μg/mL and 0.27 μg/mL) concentrations at Eurofins Pharma Discovery Services UK (Study number UK022-0004033) against a panel of 21 Phosphatases. In each experiment, the respective reference antagonist/agonist was tested directly with DJ001 and the data were compared with historical values determined at Eurofins. DJ001 compound inhibition was calculated as percentage inhibition of the enzymatic activity compared with control.", "note": "Several values for one entry are separate records, joined by “and”; a condition that tells them apart may be missing. Equal entries are not always repeated.", "data": [{"smiles": "O=C(/C=C\\Nc1cccc([N+](=O)[O-])c1)c1ccccc1", "note": "[DJ001, (Z)-3-((3-nitrophenyl)amino)-1-phenylprop-2-en-1-one]", "values": [{"measurement": "Supplementary Figure 1: Lambda PP activity", "setting": "0.27 μg/mL DJ001", "value": "126 and 132 and 133"}, {"measurement": "Supplementary Figure 1: Lambda PP activity", "setting": "2.7 μg/mL DJ001", "value": "118 and 122 and 125"}]}]}
